Laboratory results from PubChem BioAssay AID1963830 (Molecular Pharmacology Branch, DTP, NCI, 2024).

Tested on: 922993-354-T-J3-PDC complex spheroid viability
Assay: Anticancer human tumor 922993-354-T-J3-PDC patient-derived endometrial carcinoma cell line growth inhibition [POLQ]
Details: for IC50: curve of first compound; for viability, T/C: stronger effect = lower value; active = viability on the fitted dose curve at most 10% of control; inactive = the rest
Outline: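 Growth inhibition in 3D: complex spheroids (tumor PDC, HUVEC, MSC) treated with POLQ inhibitor combinations; where Cmax unknown, highest tested concentration 10 microM, except SN-38 at 1 microM.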
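Note: spheroids exposed to the agents for one week.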
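Throughout, for viability, T/C: 100% = DMSO vehicle control wells.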

Cn1ncnc1[C@H]1c2n[nH]c(=O)c3cc(F)cc(c23)N[C@@H]1c1ccc(F)cc1 + Nc1ccc(C#CCN(C(=O)Cc2ncc(C(F)(F)F)cc2C(F)(F)F)c2ccc(F)cc2)nn1
inactive: viability, T/C (second compound 0.0316 µM, first compound 0.000316 µM) 97.9% | viability, T/C (second compound 0.0316 µM, first compound 0.001 µM) 102% | viability, T/C (second compound 0.0316 µM, first compound 0.00316 µM) 101% | viability, T/C (second compound 0.0316 µM, first compound 0.01 µM) 98.3% | viability, T/C (second compound 0.0316 µM, first compound 0.0316 µM) 101% | viability, T/C (second compound 0.0316 µM, first compound 0.1 µM) 89.2% | viability, T/C (second compound 0.1 µM, first compound 0.000316 µM) 107% | viability, T/C (second compound 0.1 µM, first compound 0.001 µM) 102% | viability, T/C (second compound 0.1 µM, first compound 0.00316 µM) 102% | viability, T/C (second compound 0.1 µM, first compound 0.01 µM) 98.1% | viability, T/C (second compound 0.1 µM, first compound 0.0316 µM) 102% | viability, T/C (second compound 0.1 µM, first compound 0.1 µM) 86.5% | viability, T/C (second compound 0.316 µM, first compound 0.000316 µM) 104% | viability, T/C (second compound 0.316 µM, first compound 0.001 µM) 106% | viability, T/C (second compound 0.316 µM, first compound 0.00316 µM) 100% | viability, T/C (second compound 0.316 µM, first compound 0.01 µM) 96.6% | viability, T/C (second compound 0.316 µM, first compound 0.0316 µM) 96% | viability, T/C (second compound 0.316 µM, first compound 0.1 µM) 89.6% | viability, T/C (second compound 1 µM, first compound 0.000316 µM) 105% | viability, T/C (second compound 1 µM, first compound 0.001 µM) 101% | viability, T/C (second compound 1 µM, first compound 0.00316 µM) 98.7% | viability, T/C (second compound 1 µM, first compound 0.01 µM) 98.1% | viability, T/C (second compound 1 µM, first compound 0.0316 µM) 96.8% | viability, T/C (second compound 1 µM, first compound 0.1 µM) 86.2% | viability, T/C (second compound 3.16 µM, first compound 0.000316 µM) 102% | viability, T/C (second compound 3.16 µM, first compound 0.001 µM) 99% | viability, T/C (second compound 3.16 µM, first compound 0.00316 µM) 93% | viability, T/C (second compound 3.16 µM, first compound 0.01 µM) 95.4% | viability, T/C (second compound 3.16 µM, first compound 0.0316 µM) 89.2% | viability, T/C (second compound 3.16 µM, first compound 0.1 µM) 82.6% | viability, T/C (second compound 10 µM, first compound 0.000316 µM) 101% | viability, T/C (second compound 10 µM, first compound 0.001 µM) 94.9% | viability, T/C (second compound 10 µM, first compound 0.00316 µM) 94.8% | viability, T/C (second compound 10 µM, first compound 0.01 µM) 85.7% | viability, T/C (second compound 10 µM, first compound 0.0316 µM) 71.9% | viability, T/C (second compound 10 µM, first compound 0.1 µM) 53.4%
> 100 nM: IC50 (second compound 0.0316 µM) | IC50 (second compound 0.1 µM) | IC50 (second compound 0.316 µM) | IC50 (second compound 1 µM) | IC50 (second compound 3.16 µM) | IC50 (second compound 10 µM)
